SMILES strings stand for the structures. ± gives the expanded uncertainty stated by the source.

Data set [1] in a line: refractive index (Na D-line) (dimensionless). The following applies: 101.33 kPa, Liquid, Standard Abbe refractometry.
For data set [2] the following is noted: 101.33 kPa, Liquid; for viscosity: Capillary tube (Ostwald / Ubbelohde) method; for mass density: Vibrating tube method.

Usually refractive index stands for a measure of how strongly the sample bends light. The viscosity is the resistance of a fluid to flow. A word on the mass density: it is the mass of a sample divided by its volume. For the compound `ClCCCl` [1,2-dichloroethane], the refractive index in data set [1] (298.15 K) is given as 1.4416 ± 0.0005; in data set [1] (303.15 K), 1.4383 ± 0.0005; in data set [1] (308.15 K), 1.4336 ± 0.0005; in data set [1] (313.15 K) it was 1.4311 ± 0.0005. Moreover, the viscosity was 0.7902 ± 0.0064 mPa·s in data set [2] (298.15 K), 0.7291 ± 0.006 mPa·s in data set [2] (303.15 K), 0.6739 ± 0.0056 mPa·s in data set [2] (308.15 K) and 0.6441 ± 0.0053 mPa·s in data set [2] (313.15 K). Further, the mass density in data set [2] (298.15 K) was 1246.7 ± 0.4 kg/m3; in data set [2] (303.15 K) it was 1240.8 ± 0.4 kg/m3; in data set [2] (308.15 K) it was 1230.5 ± 0.4 kg/m3; in data set [2] (313.15 K), 1225.6 ± 0.4 kg/m3.
Regarding `Brc1ccccc1` [bromobenzene], the refractive index stood at 1.5578 ± 0.0005 in data set [1] (298.15 K), 1.5538 ± 0.0005 in data set [1] (303.15 K), 1.5514 ± 0.0005 in data set [1] (308.15 K) and 1.5468 ± 0.0005 in data set [1] (313.15 K). Moreover, the viscosity in data set [2] (298.15 K) was determined as 1.082 ± 0.0085 mPa·s; in data set [2] (303.15 K), 1.015 ± 0.008 mPa·s; in data set [2] (308.15 K) it was 0.954 ± 0.0076 mPa·s; in data set [2] (313.15 K) it was 0.878 ± 0.0071 mPa·s. In addition, the mass density in data set [2] (298.15 K) is reported as 1489.4 ± 0.7 kg/m3; in data set [2] (303.15 K), 1481.1 ± 0.7 kg/m3; in data set [2] (308.15 K), 1475.8 ± 0.7 kg/m3; in data set [2] (313.15 K), 1467.3 ± 0.6 kg/m3.
Turning to `Clc1ccccc1` [chlorobenzene], the refractive index was 1.5222 ± 0.0005 in data set [1] (298.15 K), 1.5192 ± 0.0005 in data set [1] (303.15 K), 1.5163 ± 0.0005 in data set [1] (308.15 K) and 1.5115 ± 0.0005 in data set [1] (313.15 K). Further, the viscosity in data set [2] (298.15 K) was found to be 0.7568 ± 0.0062 mPa·s; in data set [2] (303.15 K), 0.7258 ± 0.0059 mPa·s; in data set [2] (308.15 K), 0.677 ± 0.0056 mPa·s; in data set [2] (313.15 K), 0.624 ± 0.0052 mPa·s. Besides, the mass density in data set [2] (298.15 K) was 1100.4 ± 0.3 kg/m3; in data set [2] (303.15 K) it was 1094.9 ± 0.3 kg/m3; in data set [2] (308.15 K), 1089.4 ± 0.3 kg/m3; in data set [2] (313.15 K), 1083.9 ± 0.3 kg/m3.

For the origin of these results see the NIST ThermoML archive (doi:10.1021/je100552a).
